Results from patent EP1624029A1, “New Pyridinium imine based dyes and their use in optical layers for optical data recording” (CLARIANT INTERNATIONAL LTD., priority 2004, dated 2006).

Assay: DSC thermal decomposition
Format: physicochemical
Conditions: decomposition temperature by DSC
Description: The optical and thermal properties of the pyridinium imine based dye compounds were studied. The dyes show high absorption at the desired wavelengths. In addition, the shape of the absorption spectra, that still remains critical to the disc reflectivity and formation of clean mark edges, are composed of one major band, comprised in a range of from 350 to 500 nm, preferably of from 350 to 400 nm. […] Sharp threshold of thermal decomposition within the required temperature range characterizes the new pyridinium imine based dyes which are assumed to be desirable for the application in optical layers for optical data recording. As a conclusion, the pyridinium imine based dye compounds are within the specifications which are primarily required by the industry for the use of dyes in optical data recording, in particular in the next-generation optical data recording media in the blue laser range.

For CC[n+]1ccccc1N=CC1C(=O)NC(=O)NC1=O [Example 1], the “DSC (decomp.)” value was 326 °C.
